This passage reports GI50 and TGI results from PubChem BioAssay (NCI).

Among the test systems are OVCAR-8 ovarian; RPMI-8226 leukemia; SN12C renal; KM12 colon; SW-620 colon; LOX IMVI melanoma; NCI-H23 lung; CAKI-1 renal; RXF 393 renal; SNB-19 CNS.
Assay in all cases: DTP human tumour cell line panel, 48 h

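Tested at 5 concentrations; 48 h exposure; 96-well plates; endpoints linearly interpolated, else capped at highest concentration. At the GI50, growth is halved. TGI is the concentration that stops growth completely.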

Take `C=C1SC(=Nc2c(C)cc(C)cc2C)N(C(=O)c2sc3ccccc3c2Cl)C12CCCCC2`: the GI50 (in general, the concentration giving 50% growth inhibition) is > 100 µM in the test with OVCAR-8 ovarian; 21.6 µM in the test on RPMI-8226 leukemia; > 100 µM with SN12C renal; 54.6 µM with KM12 colon; 31.1 µM in the test with SW-620 colon; > 100 µM in the test on LOX IMVI melanoma. In addition, the GI50 was 37.4 µM in the test on NCI-H23 lung, 10.7 µM with CAKI-1 renal, > 100 µM in the test on RXF 393 renal and > 100 µM in the test with SNB-19 CNS. The concentration for total growth inhibition (TGI) in the test on OVCAR-8 ovarian, in the test on RPMI-8226 leukemia, in the test with SN12C renal, with KM12 colon, with SW-620 colon and in the test on LOX IMVI melanoma was > 100 µM throughout. The TGI with NCI-H23 lung, in the test with CAKI-1 renal, in the test with RXF 393 renal and in the test with SNB-19 CNS was > 100 µM each time.

Regarding `CO/C(=N\N=C\c1cccc(Cl)c1)c1ccncc1`, the total growth inhibition concentration (TGI) in the test on OVCAR-8 ovarian, with RPMI-8226 leukemia, in the test on SN12C renal, in the test with KM12 colon, with SW-620 colon and in the test on LOX IMVI melanoma was > 10 µM each time. The concentration for total growth inhibition (TGI) in the test with NCI-H23 lung, in the test with CAKI-1 renal, in the test with RXF 393 renal and in the test on SNB-19 CNS was > 10 µM each time.

For `COc1ccc(Nc2ncc(Br)c(NCCCNC(=O)C3CCC3)n2)cc1`, the GI50 was 21.1 µM in the test on OVCAR-8 ovarian; 14 µM with RPMI-8226 leukemia; 5.45 µM in the test on SN12C renal; 8.06 µM in the test on KM12 colon; 6.6 µM in the test on SW-620 colon; 4.06 µM in the test with LOX IMVI melanoma. For the same molecule, the GI50 with NCI-H23 lung was 16.6 µM; in the test on CAKI-1 renal, 5.21 µM; in the test on RXF 393 renal it was 2.3 µM; in the test on SNB-19 CNS it was 8.95 µM. Moreover, the TGI (in general, the concentration giving total growth inhibition) with OVCAR-8 ovarian was > 100 µM; in the test with RPMI-8226 leukemia, 42.1 µM; in the test with SN12C renal, 62.7 µM; in the test with KM12 colon it was > 100 µM; with SW-620 colon, > 100 µM; with LOX IMVI melanoma, 18.1 µM. The TGI in the test on NCI-H23 lung was 62.2 µM; in the test with CAKI-1 renal, 31.6 µM; with RXF 393 renal it was 8.56 µM; with SNB-19 CNS, > 100 µM.

As for `COc1cc2c(c(OC)c1OC)-c1ccc(N)c(=O)cc1[C@@H](NC(C)=O)CC2`, the GI50 in the test with OVCAR-8 ovarian was 0.0477 µM; in the test on RPMI-8226 leukemia, 0.0456 µM; in the test on SN12C renal, 0.0546 µM; with KM12 colon it was < 0.01 µM; in the test on SW-620 colon, < 0.01 µM; with LOX IMVI melanoma, 0.0256 µM. The concentration for 50% growth inhibition (GI50) was 0.0316 µM in the test with NCI-H23 lung, 1.42 µM in the test with CAKI-1 renal, 0.0303 µM with RXF 393 renal and 0.914 µM in the test with SNB-19 CNS. Also, the total growth inhibition concentration (TGI) in the test with OVCAR-8 ovarian was > 100 µM; with RPMI-8226 leukemia, > 100 µM; in the test with SN12C renal it was > 100 µM; with KM12 colon, 0.186 µM; in the test with SW-620 colon, > 100 µM; in the test on LOX IMVI melanoma, > 100 µM. In addition, the TGI in the test on NCI-H23 lung was > 100 µM; with CAKI-1 renal, > 47.2 µM; in the test with RXF 393 renal it was > 100 µM; in the test with SNB-19 CNS, > 100 µM.

Regarding `Cc1c(S(C)(=O)=O)c(-c2cc(F)cc(N3CCN(c4ccc(NS(=O)(=O)c5ccc(N[C@H](CCN6CCC(C(=O)OCCCP(=O)(O)O)CC6)CSc6ccccc6)c(S(=O)(=O)C(F)(F)F)c5)cc4)CC3)c2)c(-c2ccc(Cl)cc2)n1C(C)C`, the GI50 in the test on OVCAR-8 ovarian was > 100 µM; in the test on RPMI-8226 leukemia it was 1.29 µM; in the test with SN12C renal, > 100 µM; in the test on KM12 colon, > 100 µM; with SW-620 colon, > 100 µM; in the test with LOX IMVI melanoma it was > 100 µM. The GI50 with NCI-H23 lung was > 100 µM; in the test on CAKI-1 renal it was > 100 µM; in the test on RXF 393 renal it was > 100 µM; with SNB-19 CNS, 68.1 µM. In addition, the total growth inhibition concentration (TGI) with OVCAR-8 ovarian, in the test on RPMI-8226 leukemia, in the test on SN12C renal, with KM12 colon, in the test on SW-620 colon and with LOX IMVI melanoma was > 100 µM each time. The concentration for total growth inhibition (TGI) in the test with NCI-H23 lung, with CAKI-1 renal, in the test with RXF 393 renal and with SNB-19 CNS was > 100 µM throughout.

Take `CN(C)c1ccc([O-])cc1.CN(C)c1ccc([O-])cc1.CN(C)c1ccc([O-])cc1.CN(C)c1ccc([O-])cc1.[Ti+4]`: the GI50 in the test on OVCAR-8 ovarian is 73.7 µM; in the test with RPMI-8226 leukemia, 30.9 µM; in the test with SN12C renal, > 100 µM; with KM12 colon, 55 µM; in the test with SW-620 colon, 69.9 µM; in the test with LOX IMVI melanoma, 76.9 µM. Also, the GI50 in the test on NCI-H23 lung is > 100 µM; in the test on CAKI-1 renal, > 100 µM; in the test on RXF 393 renal it was 59 µM; in the test on SNB-19 CNS, > 100 µM. The concentration for total growth inhibition (TGI) in the test with OVCAR-8 ovarian, with RPMI-8226 leukemia, in the test on SN12C renal, with KM12 colon, in the test on SW-620 colon and with LOX IMVI melanoma was > 100 µM throughout. Moreover, the concentration for total growth inhibition (TGI) in the test on NCI-H23 lung, with CAKI-1 renal, in the test with RXF 393 renal and in the test on SNB-19 CNS was > 100 µM throughout.

Regarding `C=C(CCCCCCCCC)CC(=O)SCCNC(=O)CCNC(=O)C(O)C(C)(C)COP(=O)(O)OP(=O)(O)OCC1OC(n2cnc3c(N)ncnc32)C(O)C1OP(=O)(O)O` (stereo not given), the total growth inhibition concentration (TGI) in the test with OVCAR-8 ovarian was > 100 µM; in the test on RPMI-8226 leukemia, 62.7 µM; in the test with SN12C renal, > 100 µM; with KM12 colon, > 100 µM; in the test with SW-620 colon, > 100 µM; in the test with LOX IMVI melanoma it was 75.7 µM. Also, the TGI with NCI-H23 lung, with CAKI-1 renal, with RXF 393 renal and with SNB-19 CNS was > 100 µM in each case.

In the case of `COc1ccc2c(c1)C(=O)c1c-2n(CCCN=[N+]=[N-])c(=O)c2cc(N(C)C)ccc12`, the GI50 is 84.6 µM in the test with OVCAR-8 ovarian; > 100 µM in the test on RPMI-8226 leukemia; > 100 µM in the test on SN12C renal; 3.66 µM with KM12 colon; > 100 µM in the test on SW-620 colon; > 100 µM in the test with LOX IMVI melanoma. For the same molecule, the GI50 in the test on NCI-H23 lung is > 100 µM; in the test on CAKI-1 renal it was > 100 µM; with RXF 393 renal, 5.16 µM; in the test on SNB-19 CNS, > 100 µM. For the same molecule, the TGI in the test on OVCAR-8 ovarian, in the test with RPMI-8226 leukemia, with SN12C renal, in the test on KM12 colon, with SW-620 colon and with LOX IMVI melanoma was > 100 µM in each case. The total growth inhibition concentration (TGI) in the test on NCI-H23 lung was > 100 µM; in the test with CAKI-1 renal, > 100 µM; in the test on RXF 393 renal, 80.8 µM; in the test on SNB-19 CNS it was > 100 µM.

For `O=Nc1c(-c2c(O)[nH]c3ccc([N+](=O)[O-])cc23)[nH]c2ccc(O)cc12`, the GI50 in the test with OVCAR-8 ovarian is 0.36 µM; in the test with RPMI-8226 leukemia, 0.665 µM; in the test with SN12C renal, 0.366 µM; in the test on KM12 colon, 0.298 µM; in the test with SW-620 colon it was 0.385 µM; in the test with LOX IMVI melanoma it was 0.171 µM. For the same molecule, the GI50 in the test on NCI-H23 lung was 0.549 µM; in the test with CAKI-1 renal, 0.332 µM; in the test with RXF 393 renal it was 0.18 µM; in the test with SNB-19 CNS it was 0.465 µM. The TGI with OVCAR-8 ovarian was > 100 µM; in the test with RPMI-8226 leukemia, 14.7 µM; with SN12C renal, > 100 µM; with KM12 colon, 1.28 µM; in the test on SW-620 colon, > 100 µM; in the test with LOX IMVI melanoma, 0.531 µM. Also, the TGI with NCI-H23 lung is > 49.5 µM; in the test with CAKI-1 renal it was > 100 µM; with RXF 393 renal, 0.475 µM; in the test on SNB-19 CNS, > 100 µM.

Turning to `COc1ccccc1N=C(N)N/N=C/c1c[nH]c2ccccc12`, the concentration for total growth inhibition (TGI) with OVCAR-8 ovarian is 28.2 µM; in the test on RPMI-8226 leukemia, 32.1 µM; in the test on SN12C renal it was 22.7 µM; with KM12 colon it was 29.6 µM; in the test on SW-620 colon it was 10.4 µM; with LOX IMVI melanoma, 22.6 µM. Moreover, the TGI with NCI-H23 lung is 19.2 µM; with CAKI-1 renal, 26.7 µM; in the test on RXF 393 renal, 27.3 µM; with SNB-19 CNS it was 28.6 µM.

Take `CCn1c(C(=O)N(C2CC2)C2CC2)cc2c3c(ncn3C)c(Nc3cc(C)n(C)n3)nc21`: the GI50 in the test with OVCAR-8 ovarian is > 100 µM; in the test with RPMI-8226 leukemia it was > 100 µM; in the test with SN12C renal, 98.3 µM; in the test with KM12 colon it was 0.506 µM; in the test with SW-620 colon it was > 100 µM; with LOX IMVI melanoma it was 59.2 µM. Further, the GI50 was > 100 µM in the test on NCI-H23 lung, 16.8 µM with CAKI-1 renal, 2.99 µM with RXF 393 renal and > 100 µM in the test on SNB-19 CNS. For the same molecule, the total growth inhibition concentration (TGI) with OVCAR-8 ovarian, in the test with RPMI-8226 leukemia, with SN12C renal, in the test with KM12 colon, in the test with SW-620 colon and in the test with LOX IMVI melanoma was > 100 µM each time. In addition, the concentration for total growth inhibition (TGI) was > 100 µM in the test on NCI-H23 lung, > 100 µM in the test on CAKI-1 renal, 23.9 µM in the test on RXF 393 renal and > 100 µM in the test with SNB-19 CNS.

For `O=C1C(c2c[nH]c3ccccc23)=C(c2c[nH]c3ccccc23)C(=O)N1O`, the GI50 is > 25 µM with OVCAR-8 ovarian; > 25 µM in the test on RPMI-8226 leukemia; > 25 µM in the test on SN12C renal; > 25 µM with KM12 colon; > 25 µM in the test on SW-620 colon; 4.65 µM in the test with LOX IMVI melanoma. Besides, the GI50 in the test on NCI-H23 lung was > 25 µM; in the test with CAKI-1 renal, > 20.8 µM; with RXF 393 renal, > 22.7 µM; in the test on SNB-19 CNS, > 25 µM. Also, the concentration for total growth inhibition (TGI) in the test with OVCAR-8 ovarian, in the test with RPMI-8226 leukemia, in the test with SN12C renal, in the test on KM12 colon, in the test with SW-620 colon and in the test with LOX IMVI melanoma was > 25 µM each time. Also, the TGI in the test with NCI-H23 lung, in the test with CAKI-1 renal, with RXF 393 renal and in the test on SNB-19 CNS was > 25 µM throughout.
